Measurements: publication PMC6201930 (PLoS ONE, 2018)
Where “and” joins values, the source holds several entries; their conditions need not be identical. Equal entries are not always repeated. Entries after “also recorded” stand apart in the source; their conditions may differ.

How the values were obtained:
[1] = test system: p53 R213* UGA premature termination codon in HDQ-P1 mammary carcinoma cells; experiment: HDQ-p53UGA213 readthrough assay (full-length p53, MSD immunoassay); type: cell-based, human; conditions: for HDQ-p53UGA213 (Maxfold): maximum readthrough activity above background
Protocol: We utilized HDQ-P1 mammary carcinoma cells, which are homozygous for R213*, a UGA premature termination codon in the gene for the tumor suppressor protein p53 [30]. […] Western blot hybridization and Meso Scale Discovery (MSD) immunoassay detection of p53 were done as previously described. […] Cells (45K per well) were grown in 96-well plates and treated with compounds for 24 hours. […] Cells were lysed with 60 μl per well of lysis buffer (20 mM Tris-HCL, pH 7.5, 1 mM EGTA, 1 mM EDTA,150 mM Nacl, 0.5% Triton X100) for one hour at room temperature and 30 μl of lysate per well were transferred to the coated plate and incubated overnight at 4 °C. […] Plates were then washed three times with PBS-T and 30 μl of 0.25 μ/ml goat anti-rabbit IgG-Sulfo-tag antibody (MSD) in TBS-C was added and incubated for 1 hour at room temperature. Plates were then washed three times with PBS-T and 150 μl read buffer (MSD) was added. Plates were read immediately in a SECTOR S 600 (MSD).

[2] = Pharmacokinetics of aminoglycosides in the rat; conditions: sc, 10 mg/kg
Protocol: Test compounds were dissolved in PBS at 1 mg/mL and administered subcutaneously in a volume of 10 mL/kg to deliver a dose of 10 mg/kg. […] At 24 hours, the rat was euthanized and in addition to blood, quadriceps and kidney tissues were collected for subsequent analysis.
Blood was collected into tubes containing dipotassium ethylenediaminetetraacetic acid (K2 EDTA) as the anticoagulant and rotated at room temperature until the blood was centrifuged and the plasma recovered for subsequent analysis by liquid chromatography with tandem mass spectroscopy (LC-MS/MS). Noncompartmental toxicokinetic parameters were determined using Phoenix WinNonLin version 6.1 (Pharsight Corporation, Carey NC).
The concentrations of test compound in plasma, kidney and muscle were quantified by liquid chromatography-tandem mass spectrometry (LC-MS/MS). Briefly, the plasma and tissue homogenate samples were treated with acetonitrile-methanol mixture containing an internal standard that is a close analog of the test compounds. The treated plasma and […] homogenate samples were centrifuged and the supernatant was collected and analyzed using electro-spray LC-MS/MS.

Male Sprague Dawley rats = experiment: Fourteen day safety study in rats; type: in vivo; conditions: for Animals completed study: 6 rats per group; for hematology: numbers of red and white blood cells or platelets vs vehicle: 14 days dosing, all dose groups; for accumulation over time (toxicokinetics): Day 1 and Day 14; for histopathology of liver and bone marrow: end of the 14 day dosing period; for urine lipocalin / urine albumin, clusterin, cystatin C and osteopontin: highest dose groups: G418 20 mg/kg, gentamicin X2 40 mg/kg; for urine albumin, clusterin, cystatin C and osteopontin: normalized to urinary creatinine
Protocol: To evaluate in vivo safety we administered the compounds daily to rats (n = 6 rats per dose group) by subcutaneous injection for 14 days.
Male Sprague Dawley rats were purchased from Charles River Laboratories, where 6 weeks old at time of study initiation. Rats were group-housed (3 rats per box) in solid bottom cages. Food and water were provided ad libitum. Rats were dosed daily by subcutaneous injection. […] Blood was collected for serum chemistry by retro-orbital bleeds on Day 7 and by terminal cardiac puncture on Day 14. For urine collection, rats were housed in metabolic cages for 6 hours. Toxicokinetics was evaluated on Day 1 and Day 14 (S4 Fig). Blood was obtained by retro-orbital bleeding at 0, 0.25, 0.75, 1.5, 4, 7, 24 hours post-dose. Rats were euthanized on Day 14, 24 hours after the last dose. Body weights were measured on Days 3, 6, 9, 12 and 14. Endpoints to evaluate kidney function included serum chemistry (BUN and creatinine; Day 7 and Day 14), urine biomarkers (albumin, clusterin, cystatin C, osteopontin, KIM1, and alpha GST; Day 6 and Day 9), hematology (Day 14) and histopathology. For histopathology, kidney, liver, and bone marrow were evaluated. Samples collected for histopathology were sectioned at 5 μm, stained with hematoxylin and eosin (H&E), and examined by a board certified veterinary pathologist. BUN, creatine and hematology parameters were measured using a HESKA veterinary system (Loveland, CO). Urine samples were assayed using MSD electrochemiluminescent immunoassay. Samples were analyzed in triplicate using a Sector Imager 6000 instrument (MSD, Rockville, Maryland). Kits used were the Rat Kidney Injury Panel 1 (albumin, Kim-1, NGAL/lipocalin-2, osteopontin), the Argutus Acute Kidney Injury Panel (α-GST, GSTYb1, RPA-1) and the Clusterin Test Kit (MSD), according to the manufacturer’s instructions. Urinary biomarker concentrations were normalized to urinary creatinine to account for differences in urine production and flow rates.

[3] = Cytotoxicity in myoblasts; conditions: mouse
Description: When considering compounds for potential readthrough therapy it is important to monitor cellular and animal safety. In order to determine the most promising compounds to further evaluate in in vivo safety, we measured cytotoxicity in two different cell types. We used activated human peripheral blood mononuclear cells (PBMCs) (Table 2 and Fig 2D and 2E). PBMCs are a primary cell that when activated with phytohaemagglutinin (PHA) expand quickly and are commonly used as an in vitro surrogate for rapidly growing cells in the human body to evaluate cytotoxicity. Prior to advancing compounds into human studies, safety evaluation in rodents is performed. As an in vitro surrogate for rodent toxicity, we used primary mouse myoblasts.

[4] = concentration required to double the level of full-length p53 protein, average ± SD, at least three experiments, highest concentration 300 μM
[5] = 10 mg/kg daily s.c. 14 days, 6 kidneys examined
[6] = 20 mg/kg daily s.c. 14 days, kidneys examined: X2 6, G418 3
[7] = 40 mg/kg daily s.c. 14 days, 6 kidneys examined, listed as X2
[8] = 40 mg/kg daily s.c. 14 days, 6 kidneys examined, listed as gentamicin X2

CN[C@@H]1[C@@H](O)[C@@H](O[C@@H]2[C@@H](O)[C@H](O[C@H]3O[C@H](CO)[C@@H](O)[C@H](O)[C@H]3N)[C@@H](N)C[C@H]2N)OC[C@]1(C)O (stereo in doubt) [Gentamicin X2, gentamicin X2]
HDQ-p53UGA213 EC2X ([1]; AVERAGE (S1 File)): 18.6 µM | HDQ-p53UGA213 max ([1]; AVERAGE (S1 File)): 39.1 | HDQ-p53UGA213 EC2X [1, 4]: 19 ± 6 µM | HDQ-p53UGA213 EC2X ([1]; individual experiments (S1 File)): 19.47 µM and 16.13 µM and 19.14 µM and 12.27 µM and 19.04 µM and 21.26 µM and 22.25 µM and 17.98 µM and 6.97 µM and 32.75 µM and 17.45 µM and 17.38 µM and 19.08 µM | HDQ-p53UGA213 max ([1]; individual experiments (S1 File), max fold): 23.4 and 60.4 and 40.4 and 95 and 8.4 and 8 and 12.7 and 10.6 and 84.8 and 5.1 and 37.4 and 60.1 and 62.2 | HDQ-p53UGA213 (Maxfold) ([1]; average ± SD): 39 ± 31 fold | concentration at 24 h ([2]; kidney): 7000 ± 1000 ng/g | AUC ([2]; plasma): 13000 ng·h/mL | AUC(0-t) ([2]; plasma): 13000 ng·h/mL | Cmax ([2]; plasma): 5600 ng/mL | Tmax ([2]; plasma): 0.5 h | concentration at 24 h ([2]; plasma): ≤ 1 ng/g | half-life ([2]; plasma): 2.6 h | concentration at 24 h ([2]; quadriceps): ~40 ng/g | Animals completed study (Male Sprague Dawley rats; 10 mg/kg daily s.c. 14 days): 6 | Kidneys: Mineralization (number of kidneys) (Male Sprague Dawley rats; [5]): 0 | Kidneys: Pelvic dilation (number of kidneys) (Male Sprague Dawley rats; [5]): 0 | Kidneys: Tubular necrosis (number of kidneys) (Male Sprague Dawley rats; [5]): 2 | Animals completed study (Male Sprague Dawley rats; 20 mg/kg daily s.c. 14 days): 6 | Kidneys: Mineralization (number of kidneys) (Male Sprague Dawley rats; [6]): 0 | Kidneys: Pelvic dilation (number of kidneys) (Male Sprague Dawley rats; [6]): 1 | Kidneys: Tubular necrosis (number of kidneys) (Male Sprague Dawley rats; [6]): 2 | effect on body weight (Male Sprague Dawley rats; 20 mg/kg daily s.c., 14 days): did not affect body weight | Animals completed study (Male Sprague Dawley rats; 40 mg/kg daily s.c. 14 days): 6 | Kidneys: Mineralization (number of kidneys) (Male Sprague Dawley rats; 40 mg/kg daily s.c. 14 days, 6 kidneys examined): 0 | Kidneys: Pelvic dilation (number of kidneys) (Male Sprague Dawley rats; [7]): 4 | Kidneys: Tubular necrosis (number of kidneys) (Male Sprague Dawley rats; [7]): 4 | Kidneys: Pelvic dilation (number of kidneys) (Male Sprague Dawley rats; [8]): four of six kidneys | Kidneys: Tubular necrosis (number of kidneys) (Male Sprague Dawley rats; [8]): four of six kidneys | effect on body weight (Male Sprague Dawley rats; 40 mg/kg daily s.c., 14 days): only slightly reduced body weight | hematology: numbers of red and white blood cells or platelets vs vehicle (Male Sprague Dawley rats): no change; also recorded: no obvious differences across groups | accumulation over time (toxicokinetics) (Male Sprague Dawley rats): no accumulation | tolerability (Male Sprague Dawley rats; all dose levels, 14 days daily s.c.): well-tolerated at all dose levels | rats found dead or euthanized (Male Sprague Dawley rats; any of the three dose groups (10, 20, 40 mg/kg), 14 days): No rats were found dead or euthanized | histopathology of liver and bone marrow (Male Sprague Dawley rats): No histopathology findings | urine lipocalin (Male Sprague Dawley rats): not affected | urine albumin, clusterin, cystatin C and osteopontin (Male Sprague Dawley rats): not increased | CC50 ([3]; primary mouse myoblasts, Myoblast (CC50), average ± SD): 834 ± 623 µM | CC50 ([3]; primary mouse myoblasts, Myoblast CC50, AVERAGE (S1 File)): 834 µM

CN[C@@H]1[C@@H](O)[C@@H](O[C@@H]2[C@@H](O)[C@H](O[C@H]3O[C@H]([C@@H](C)O)[C@@H](O)[C@H](O)[C@H]3N)[C@@H](N)C[C@H]2N)OC[C@]1(C)O [G418, reference compound]
HDQ-p53UGA213 EC2X ([1]; AVERAGE (S1 File)): 9.3 µM | HDQ-p53UGA213 max ([1]; AVERAGE (S1 File)): 43.8 | HDQ-p53UGA213 EC2X [1, 4]: 9 ± 5 µM | HDQ-p53UGA213 (Maxfold) ([1]; average ± SD): 44 ± 19 fold | AUC ([2]; in vivo): 15000 ng·h/mL | AUC(0-t) ([2]; in vivo): 15000 ng·h/mL | Cmax ([2]; in vivo): 7400 ng/mL | Tmax ([2]; in vivo): 0.33 h | half-life ([2]; in vivo): 1.5 h | concentration at 24 h ([2]; in vivo, Kidney levels, 10 mg/kg subcutaneous, 24 hours post-dose, mean ± SD of three rats): 12000 ± 3000 ng/g | concentration at 24 h ([2]; in vivo, levels in the quadriceps, 10 mg/kg subcutaneous, 24 hours after dosing): ~40 ng/g | concentration at 24 h ([2]; in vivo, plasma levels, 10 mg/kg subcutaneous, 24 hours after dosing, at or below lower limit of quantification): ≤ 1 ng/g | Animals completed study (Male Sprague Dawley rats; 10 mg/kg daily s.c. 14 days): 6 | Kidneys: Mineralization (number of kidneys) (Male Sprague Dawley rats; [5]): 1 | Kidneys: Pelvic dilation (number of kidneys) (Male Sprague Dawley rats; [5]): 2 | Kidneys: Tubular necrosis (number of kidneys) (Male Sprague Dawley rats; [5]): 4 | Animals completed study (Male Sprague Dawley rats; 20 mg/kg daily s.c. 14 days): 3 | Kidneys: Mineralization (number of kidneys) (Male Sprague Dawley rats; [6]): 0 | rats euthanized or found dead (Male Sprague Dawley rats; 20 mg/kg daily s.c., 14 days, 6 rats): three rats were either euthanized or found dead | creatinine and blood urea nitrogen (BUN) levels (Male Sprague Dawley rats; 20 mg/kg, Days 7 and 14, p<0.05 vs vehicle): significantly elevated | hematology: numbers of red and white blood cells or platelets vs vehicle (Male Sprague Dawley rats): no obvious differences across groups | accumulation over time (toxicokinetics) (Male Sprague Dawley rats): no accumulation | urine alpha-GST levels (Male Sprague Dawley rats; G418 20 mg/kg compared to gentamicin X2 40 mg/kg): greatest decrease | histopathology of liver and bone marrow (Male Sprague Dawley rats): No histopathology findings | urine lipocalin (Male Sprague Dawley rats): not affected | urine albumin, clusterin, cystatin C and osteopontin (Male Sprague Dawley rats): increased | CC50 ([3]; Myoblast (CC50), average ± SD): 166 ± 100 µM | CC50 ([3]; Myoblast CC50, AVERAGE (S1 File)): 166 µM
